Assay results from patent US20050227999A1, “Diarylamine derivatives as calcium channel blockers” (NeuroMed Technologies Inc., priority 2004, published 2005).
Where two headings read alike, the source gives them in different places.

How the values were obtained:
[1] = tested on: spinal nerve ligation (SNL) injury; assay: Spinal nerve ligation (SNL) model of neuropathic pain, thermal hyperalgesia; type: in vivo; details: rat SNL, 30 mg/kg orally in propylene glycol
Excerpt: Spinal nerve ligation (SNL) injury was induced using the procedure of Kim and Chung, (Kim and Chung 1992) in male Sprague-Dawley rats (Harlan; Indianapolis, Ind.) weighing 200 to 300 grams. Anesthesia was induced with 2% halothane in O2 at 2 L/min and maintained with 0.5% halothane in O2. After surgical preparation of the rats and exposure of the dorsal vertebral column from L4 to S2, the L5 and L6 spinal nerves were tightly ligated distal to the dorsal root ganglion using 4-0 silk suture. The incision was closed, and the animals were allowed to recover for 5 days. […] Sham control rats underwent the same operation and handling as the experimental animals, but without SNL.
The method of Hargreaves and colleagues (Hargreaves, et al., 1988) was employed to access paw-withdrawal latency to a thermal nociceptive stimulus. Rats were allowed to acclimate within a plexiglas enclosure on a clear glass plate maintained at 30° C. A radiant heat source (i.e., high intensity projector lamp) was activated with a timer and focused onto the plantar surface of the affected paw of nerve-injured or carrageenan-injected rats. Paw-withdrawal latency was determined by a photocell that halted both lamp and timer when the paw was withdrawn. The latency to withdrawal of the paw from the radiant heat source was determined prior to carrageenan or […], 3 hours after carrageenan or 7 days after L5/L6 SNL but before drug and after drug ministration. A maximal cut-off of 40 seconds was Employed to prevent tissue damage. Paw withdrawal latencies were thus determined to the Nearest 0.1 second. Reversal of thermal hyperalgesia was indicated by a return of the paw Withdrawal latencies to the pre-treatment baseline latencies (i.e., 21 seconds). Anti nociception Was indicated by a significant (p <0.05) increase in paw withdrawal latency above this baseline. Data were converted to % anti hyperalgesia by the formula: (100qx (test latency−baseline latency)/(cut-off−baseline latency) where cut-off was 21 seconds for determining anti hyperalgesia.
Compound 7 was administered orally in propylene glycol solution at a dose of 30 mg/kg. The percent activity was calculated for thermal hyperalgesia.

rat formalin model = assay: Formalin-induced pain model; type: in vivo; details: 30 mg/kg IP, 10 minutes prior to formalin, saline control=100%
Protocol: The effects of intrathecally delivered compounds of the invention on the rat formalin model were measured. The compounds were reconstituted to stock solutions of approximately 10 mg/ml in propylene glycol. Eight Holtzman male rats of 275-375 g size were randomly selected per test article.
The following study groups were used, with test article, vehicle control (propylene glycol) and saline delivered intraperitoneally (IP):
Prior to initiation of drug delivery baseline behavioral and testing data were taken.
On the morning of testing, a small metal band (0.5 g) was loosely placed around the right hind paw. The rat was placed in a cylindrical Plexiglas chamber for adaptation a minimum of 30 minutes. Test Article or Vehicle Control Article was administered 10 minutes prior to formalin injection (50 μl of 5% formalin) into the dorsal surface of the right hindpaw of the rat. The animal was then placed into the chamber of the automated formalin apparatus where movement of the formalin injected paw was monitored and the number of paw flinches tallied by minute over the next 60 minutes (Malmberg, A. B., et al., Anesthesiology (1993) 79:270-281).
Results are presented as Maximum Possible Effect±SEM, where saline control=100%.

[2] = molecular target: T1, human α1G T-type channels (Homo sapiens, UniProt O43497); assay: T-type calcium channel block, patch clamp in HEK cell lines; type: cell-based
T1 construct: expressed in transfected cells
Protocol: Standard patch-clamp techniques were employed to identify blockers of T-type currents. Briefly, previously described HEK cell lines stably expressing human α1G T-type channels were used for all the recordings (passage #: 4-20, 37° C., 5% CO2). To obtain T-type currents, plastic dishes containing semi-confluent cells were positioned on the stage of a ZEISS AXIOVERT S100 microscope after replacing the culture medium with external solution (see below). Whole-cell patches were obtained using pipettes (borosilicate glass with filament, O.D.: 1.5 mm, I.D.: 0.86 mm, 10 cm length), fabricated on a SUTTER P-97 puller with resistance values of ˜5 MΩ (see below for internal solution).
In the non-inactivating protocol, the holding potential is set at −110 mV and with a pre-pulse at −100 mV for 1 second prior to the test pulse at 40 mV for 50 ms. […]
Test compounds were dissolved in external solution, 0.1-0.01% DMSO. After ˜10 min rest, they were applied by gravity close to the cell using a WPI microfil tubing. The “non-inactivated” pre-pulse was used to examine the resting block of a compound. The “inactivated” protocol was employed to study voltage-dependent block. However, the initial data shown below were mainly obtained using the non-inactivated protocol only. IC50 values are shown for various compounds of the invention in Table 4.

[3] = molecular target: T2, rat brain N-type calcium channel subunits (α1B+α2δ+β1b cDNA subunits) (Rattus norvegicus, UniProt Q02294); assay: N-type calcium channel block, whole cell patch clamp in transfected HEK 293 cells; type: cell-based; details: holding potential −80 mV to +10 mV
T2 construct: expressed in transfected cells; host or cells: HEK 293
Protocol: N-type calcium channel blocking activity was assayed in human embryonic kidney cells, HEK 293, stably transfected with the rat brain N-type calcium channel subunits (α1B+α2δ+β1b cDNA subunits). Alternatively, N-type calcium channels (α1B+α2δ+β1b cDNA subunits), L-type channels (α1C+δ+β1b cDNA subunits) and P/Q-type channels (α1A+α2δ+β1b cDNA subunits) were transiently expressed in HEK 293 cells. Briefly, cells were cultured in Dulbecco's modified eagle medium (DMEM) supplemented with 10% fetal bovine serum, 200 U/ml penicillin and 0.2 mg/ml streptomycin at 37° C. with 5% CO2. At 85% confluency cells were split with 0.25% trypsin/l mM EDTA and plated at 10% confluency on glass coverslips. At 12 hours the medium was replaced and the cells transiently transfected using a standard calcium phosphate protocol and the appropriate calcium channel cDNA's. Fresh DMEM was supplied and the cells transferred to 28° C./5% CO2. Cells were incubated for 1 to 2 days before cell recording.
Whole cell patch clamp experiments were performed using an Axopatch 200B amplifier (Axon Instruments, Burlingame, Calif.) linked to a personal computer equipped with PCLAMP software. The external and internal recording solutions contained, respectively, 5 mM BaCl2, 10 mM MgCl2, 10 mM HEPES, 40 mM TEACl, 10 mM glucose, 87.5 mM CsCl (pH 7.2) and 108 mM CsMS, 4 mM MgCl2, 9 mM EGTA, 9 mM HEPES (pH 7.2). Currents were typically elicited from a holding potential of −80 mV to +10 mV using Clampex software (Axon Instruments). Typically, currents were first elicited with low frequency stimulation (0.067 Hz) and allowed to stabilize prior to application of the compounds. The compounds were then applied during the low frequency pulse trains for two to three minutes to assess tonic block, and subsequently the pulse frequency was increased to 0.2 Hz to assess frequency dependent block. Data were analyzed using Clampfit (Axon Instruments) and SigmaPlot 4.0 (Jandel Scientific). […]

[4] = tested on: T-type over L-type channels; details: cited from earlier work

T1 sequence (O43497 whole entry): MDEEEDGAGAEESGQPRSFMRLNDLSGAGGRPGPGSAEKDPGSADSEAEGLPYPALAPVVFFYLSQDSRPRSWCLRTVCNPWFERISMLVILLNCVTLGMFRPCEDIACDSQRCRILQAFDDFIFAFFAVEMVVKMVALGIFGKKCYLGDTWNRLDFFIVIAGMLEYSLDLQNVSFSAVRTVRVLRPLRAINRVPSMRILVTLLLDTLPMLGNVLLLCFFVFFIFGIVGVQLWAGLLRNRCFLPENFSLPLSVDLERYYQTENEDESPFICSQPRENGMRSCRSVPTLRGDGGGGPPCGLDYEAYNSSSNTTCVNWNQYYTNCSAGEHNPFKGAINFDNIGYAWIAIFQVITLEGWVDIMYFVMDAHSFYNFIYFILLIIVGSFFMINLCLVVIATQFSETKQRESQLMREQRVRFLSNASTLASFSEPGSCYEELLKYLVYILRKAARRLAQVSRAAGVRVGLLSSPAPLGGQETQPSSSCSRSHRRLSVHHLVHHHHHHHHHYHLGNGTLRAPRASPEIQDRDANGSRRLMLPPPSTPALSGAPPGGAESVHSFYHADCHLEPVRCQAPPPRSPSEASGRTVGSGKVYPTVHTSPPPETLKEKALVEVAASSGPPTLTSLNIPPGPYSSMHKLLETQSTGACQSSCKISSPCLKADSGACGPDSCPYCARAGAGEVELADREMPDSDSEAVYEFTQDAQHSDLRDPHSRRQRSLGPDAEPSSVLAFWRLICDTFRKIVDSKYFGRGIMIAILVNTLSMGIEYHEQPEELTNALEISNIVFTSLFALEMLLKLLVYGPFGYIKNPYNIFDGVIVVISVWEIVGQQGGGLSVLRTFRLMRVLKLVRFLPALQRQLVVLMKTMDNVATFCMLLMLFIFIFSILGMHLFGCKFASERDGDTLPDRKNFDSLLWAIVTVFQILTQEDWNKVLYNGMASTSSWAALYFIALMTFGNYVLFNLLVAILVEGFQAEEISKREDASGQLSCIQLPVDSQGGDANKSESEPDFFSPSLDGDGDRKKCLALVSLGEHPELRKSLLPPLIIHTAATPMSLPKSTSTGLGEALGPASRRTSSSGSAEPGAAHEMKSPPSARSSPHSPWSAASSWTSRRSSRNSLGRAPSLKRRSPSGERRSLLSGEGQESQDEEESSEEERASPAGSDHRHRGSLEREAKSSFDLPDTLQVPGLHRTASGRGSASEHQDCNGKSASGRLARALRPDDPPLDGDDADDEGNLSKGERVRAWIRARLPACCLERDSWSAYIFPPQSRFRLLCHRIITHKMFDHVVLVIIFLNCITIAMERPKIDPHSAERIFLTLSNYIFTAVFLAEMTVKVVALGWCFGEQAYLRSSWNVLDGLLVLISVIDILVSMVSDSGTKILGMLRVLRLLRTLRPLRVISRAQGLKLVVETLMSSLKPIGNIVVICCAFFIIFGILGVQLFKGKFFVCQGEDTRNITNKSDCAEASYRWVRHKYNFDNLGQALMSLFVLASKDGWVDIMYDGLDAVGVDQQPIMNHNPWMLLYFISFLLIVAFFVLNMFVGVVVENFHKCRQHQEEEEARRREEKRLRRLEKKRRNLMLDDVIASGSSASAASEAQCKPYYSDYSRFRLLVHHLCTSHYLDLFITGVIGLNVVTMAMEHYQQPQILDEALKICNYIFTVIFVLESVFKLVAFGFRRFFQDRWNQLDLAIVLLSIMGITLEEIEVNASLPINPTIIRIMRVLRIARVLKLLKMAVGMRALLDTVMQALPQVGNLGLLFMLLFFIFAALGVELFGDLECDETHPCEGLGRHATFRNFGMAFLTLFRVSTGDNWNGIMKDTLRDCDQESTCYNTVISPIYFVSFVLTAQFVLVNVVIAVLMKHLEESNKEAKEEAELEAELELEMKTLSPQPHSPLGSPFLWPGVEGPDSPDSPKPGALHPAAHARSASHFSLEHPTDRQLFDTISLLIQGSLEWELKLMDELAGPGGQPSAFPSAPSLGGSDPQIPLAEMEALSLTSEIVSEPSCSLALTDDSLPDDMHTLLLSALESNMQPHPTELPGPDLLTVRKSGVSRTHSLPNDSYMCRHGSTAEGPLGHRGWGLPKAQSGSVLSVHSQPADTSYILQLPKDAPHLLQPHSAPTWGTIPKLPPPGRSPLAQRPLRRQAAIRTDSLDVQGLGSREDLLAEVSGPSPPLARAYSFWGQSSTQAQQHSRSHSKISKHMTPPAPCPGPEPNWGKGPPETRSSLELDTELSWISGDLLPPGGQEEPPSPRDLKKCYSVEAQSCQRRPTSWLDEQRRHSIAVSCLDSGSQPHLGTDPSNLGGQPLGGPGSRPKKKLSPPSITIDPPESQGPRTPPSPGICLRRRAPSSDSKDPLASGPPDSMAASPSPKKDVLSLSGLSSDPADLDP

Row | Compound | Thermal Hyperalgesia (% Activity) ([1]; 30 min) [%] | Thermal Hyperalgesia (% Activity) ([1]; 60 min) [%] | Thermal Hyperalgesia (% Activity) ([1]; 90 min) [%] | Thermal Hyperalgesia (% Activity) ([1]; 120 min) [%] | Maximum Possible Effect±SEM, Phase II Total (rat formalin model) [%] | Maximum Possible Effect±SEM, Phase IIB (rat formalin model) [%] | IC50 ([2]; −80 mV (inactivation protocol, voltage-dependent block), read-out: IC50 - 80 mV) [nM] | IC50 ([2]; −100 mV pre-pulse (non-inactivating protocol, resting block), read-out: IC50 - 100 mV) [nM] | IC50 ([3]; low frequency stimulation 0.067 Hz (tonic block), read-out: IC50 @ 0.067 Hz) [nM] | IC50 ([3]; pulse frequency 0.2 Hz (frequency dependent block), read-out: IC50 @ 0.2 Hz) [nM] | selective for T-type over L-type channels [4]
1 | O=C(CN(c1ccccc1)c1ccccc1)N1CCN(C(c2ccccc2)c2cccc(Cl)c2Cl)CC1 (centres unmarked) [Compound 7, 1-{4-[(2,3-Dichloro-phenyl)-phenyl-methyl]-piperazin-1-yl}-2-diphenylamino-ethanone] | 38.45 ± 18.52 | 78.54 ± 10.74 | 40.21 ± 17.08 | 20.98 ± 10.36 | 63 ± 10 | 64 ± 11 | 1000 | 1000 | 180 | 140 | –
2 | COCC(=O)O[C@]1(CCN(C)CCCc2nc3ccccc3[nH]2)CCc2cc(F)ccc2[C@@H]1C(C)C [Mibefradil] | – | – | – | – | – | – | – | – | – | – | 10-30 fold
